From DBAASP come the findings set out here.

Values after ≈ are worked out from the molar mass of the structure shown. Values joined by “and” are separate entries in the source; they are usually repeats but may differ in a detail not shown here. Equal entries are not always repeated. Some results are limits rather than exact numbers.

Test systems include Escherichia coli D21; Azotobacter vinelandii; Escherichia coli D31; Candida albicans 38U; Candida albicans 01U; Trichophyton rubrum; Candida parapsilosis; Aspergillus fumigatus; Escherichia coli D22; Micrococcus luteus A270.
Experiment in all cases: ≥ marks a high value that may be exact or a test limit, other limits are often not marked, values filed in µg/mL are converted to µM
In assay [1] the test system is Escherichia coli ATCC 25922.
Assay [2] deals with Enterococcus faecalis ATCC 19433.
For assay [3], the system named is Acinetobacter baumannii ATCC 19606.
Assay [4] deals with Aspergillus fumigatus ATCC 26430.
For assay [5], the system named is Pseudomonas aeruginosa ATCC 27853.
Assay [6] deals with Staphylococcus aureus II ATCC 6538P.
For assay [7], the system named is Salmonella enterica subsp. enterica serovar Typhimurium ATCC 14028.
Assay [8] has as its system Listeria monocytogenes DBFIQ LM3.
Assay [9] concerns Staphylococcus aureus DBFIQ S21.
Assay [10] has as its system Clavibacter michiganensis subsp. michiganensis DSM 46294.
Assay [11] relates to Pseudomonas syringae pv. tomato DC3000.
Assay [12] concerns Pseudomonas syringae pv. syringae DSM 10604.
The subject of assay [13] is Staphylococcus aureus 90857.
In assay [14] the test system is Pseudomonas corrugata DSM 7228.
The test system of assay [15] is Xanthomonas vesicatoria DSM 50861.
In assay [16] the test system is Pectobacterium carotovorum subsp. carotovorum DSM 30168.
For assay [17], the system named is Staphylococcus aureus ATCC 25923.
Assay [18] relates to Candida albicans ATCC 14053.
Assay [19] has as its system Klebsiella pneumoniae ATCC 13883.
Assay [20] relates to Enterococcus faecalis ATCC 29212.
Assay [21] relates to Escherichia coli ATCC 43827.
Assay [22] concerns Escherichia coli ATCC 11775.
Assay [23] deals with Cryptococcus neoformans L26.
The test system of assay [24] is Trichophyton mentagrophytes.
In assay [25] the test system is Cryptococcus neoformans L30.
Assay [26] has as its system Neurospora crassa CBS 327-54.

As a reminder, the MIC is the smallest concentration in the dilution series that meets the test's criterion for growth inhibition. Lower therefore signals a more susceptible organism.

On to `CC(C)C[C@H](NC(=O)[C@H](CCCN=C(N)N)NC(=O)[C@H](CCCN=C(N)N)NC(=O)[C@H](CC(C)C)NC(=O)[C@H](CC(C)C)NC(=O)[C@H](CCCN=C(N)N)NC(=O)[C@H](CCCN=C(N)N)NC(=O)[C@H](CC(C)C)NC(=O)[C@H](CC(C)C)NC(=O)[C@H](CCCN=C(N)N)NC(=O)[C@H](CCCN=C(N)N)NC(=O)[C@H](CC(C)C)NC(=O)[C@H](C)NC(=O)[C@H](CC(=O)O)NC(=O)[C@@H](N)CC(=O)O)C(=O)O` [DDALRRLLRRLLRRL], for which the MIC in assay [1] was 100 µM (≈ 194 µg/mL); in assay [2] it was at least 100 µM; with Escherichia coli D21, at least 50 µM; in assay [3], 75 µM and 100 µM; in [4], 6.2 µM and 3.1 µM; in [5], 50 µM (≈ 96.8 µg/mL). In [6], the minimal inhibitory concentration (MIC) was ≥ 50 µM and 31 µM.
As for `CC(C)[C@H](NC(=O)[C@H](CCCCN)NC(=O)[C@@H](NC(=O)[C@@H](NC(=O)[C@H](CCC(=O)O)NC(=O)[C@H](CC(N)=O)NC(=O)[C@H](CCC(=O)O)NC(=O)[C@H](CCCCN)NC(=O)[C@H](CC(=O)O)NC(=O)[C@H](CC(=O)O)NC(=O)[C@H](CCC(=O)O)NC(=O)[C@H](CCC(=O)O)NC(=O)[C@H](CCC(=O)O)NC(=O)[C@@H](NC(=O)[C@H](CCCCN)NC(=O)[C@H](CC(=O)O)NC(=O)[C@H](CC(=O)O)NC(=O)[C@@H](N)CC(=O)O)[C@@H](C)O)[C@@H](C)O)[C@@H](C)O)C(=O)N[C@H](C(=O)N[C@@H](CCC(=O)O)C(=O)O)C(C)C` [DDDKTEEEDDKENETTKVVE], the results for the MIC (against Azotobacter vinelandii; in assay [7]) were at least 84.6 µM and 42.3 µM (≈ 100 µg/mL), respectively.
As to `CC[C@H](C)[C@H](NC(=O)[C@H](C)NC(=O)[C@@H](NC(=O)[C@H](C)NC(=O)CN)[C@@H](C)O)C(=O)N[C@@H](CCCCN)C(=O)N[C@@H](CCC(N)=O)C(=O)N[C@H](C(=O)N[C@@H](CCCCN)C(=O)N[C@@H](CCCCN)C(=O)N[C@@H](CC(C)C)C(=O)N[C@@H](Cc1ccccc1)C(=O)N[C@@H](CCCCN)C(=O)N[C@@H](CCCCN)C(=O)N[C@@H](CCCCN)C(=O)NCC(=O)NCC(N)=O)C(C)C` [GATAIKQVKKLFKKKGG], the figures for the minimal inhibitory concentration (MIC) in [8] and in assay [9] were 17.8 µM (≈ 32.1 µg/mL) and 8.9 µM (≈ 16 µg/mL), respectively.
As for `CC[C@H](C)[C@H](NC(=O)[C@H](CCCN=C(N)N)NC(=O)[C@@H](N)CC(C)C)C(=O)N[C@@H](CC(C)C)C(=O)N[C@@H](CCCN=C(N)N)C(=O)N[C@@H](CCCN=C(N)N)C(=O)N[C@@H](CC(C)C)C(=O)N[C@@H](CC(C)C)C(=O)N[C@@H](CCCN=C(N)N)C(=O)N[C@@H](CCCN=C(N)N)C(=O)N[C@@H](CC(C)C)C(=O)N[C@@H](Cc1ccccc1)C(N)=O` [LRILRRLLRRLF], the minimal inhibitory concentration (MIC) in [10] amounted to 3.08 µM (≈ 5 µg/mL); in [11], 0.615 µM (≈ 0.999 µg/mL); in assay [12], 6.15 µM (≈ 9.99 µg/mL); in [13], 6.25 µM (≈ 10.2 µg/mL); in [14], 1.54 µM (≈ 2.5 µg/mL); in [15], 3.08 µM (≈ 5 µg/mL). Moreover, the MIC in [16] amounted to 6.15 µM (≈ 9.99 µg/mL).
For the compound `CC[C@H](C)[C@@H]1NC(=O)CNC(=O)[C@H](CCCCN)NC(=O)[C@H](CC(N)=O)NC(=O)[C@H](CCCNC(=N)N)NC(=O)[C@H](C(C)C)NC(=O)[C@@H](NC(=O)[C@H](CO)NC(=O)[C@@H](NC(=O)[C@@H]2CCCN2C(=O)[C@@H](N)CC(N)=O)C(C)C)CSSC[C@@H]2NC(=O)[C@H](CCCCN)NC(=O)[C@H](C(C)C)NC(=O)[C@H](C)NC(=O)[C@H](CCCNC(=N)N)NC(=O)CNC(=O)[C@H](C(C)C)NC(=O)[C@@H]3CSSC[C@H](NC1=O)C(=O)N[C@@H](C(C)C)C(=O)N1CCC[C@H]1C(=O)N[C@@H]([C@@H](C)CC)C(=O)N[C@@H](CCCNC(=N)N)C(=O)N[C@@H](CSSC[C@@H](C(=O)N[C@@H](CCCNC(=N)N)C(=O)N[C@@H](CCCCN)C(=O)N[C@@H](CCCCN)C(=O)O)NC2=O)C(=O)N1CCC[C@H]1C(=O)NCC(=O)N[C@@H](CO)C(=O)N[C@@H](CCSC)C(=O)N[C@@H](CCCCN)C(=O)N[C@@H](CCC(N)=O)C(=O)N[C@@H]([C@@H](C)CC)C(=O)NCC(=O)N[C@@H]([C@@H](C)O)C(=O)N3` [NPVSCVRNKGICVPIRCPGSMKQIGTCVGRAVKCCRKK], the minimum inhibitory concentration (MIC) in assay [17] amounted to 8.64 µM (≈ 35.3 µg/mL); in assay [18] it was 2.07 µM (≈ 8.47 µg/mL); in assay [19], 4.23 µM (≈ 17.3 µg/mL); in the assay with Escherichia coli D31 it was 4.23 µM (≈ 17.3 µg/mL); in assay [5], 8.64 µM (≈ 35.3 µg/mL).
For `NC(=O)CC[C@H](NC(=O)[C@H](Cc1c[nH]c2ccccc12)NC(=O)[C@H](CCCN=C(N)N)NC(=O)[C@@H](N)CCCN=C(N)N)C(=O)N[C@@H](Cc1c[nH]c2ccccc12)C(=O)N[C@@H](CCCN=C(N)N)C(=O)O` [RRWQWR], the MIC came to 22 µM (≈ 21.7 µg/mL) in [1], 44 µM (≈ 43.4 µg/mL) in assay [20], 5 µM (≈ 4.94 µg/mL) in assay [21] and 22 µM (≈ 21.7 µg/mL) in [22].
As to `CC[C@H](C)[C@H](NC(=O)[C@H](CC(C)C)NC(=O)[C@H](CCC(=O)O)NC(=O)[C@H](CO)NC(=O)[C@H](CCCN=C(N)N)NC(=O)[C@@H](N)CO)C(=O)N[C@H](C(=O)N[C@@H](Cc1cnc[nH]1)C(=O)N[C@@H](CCC(N)=O)C(=O)N[C@@H](CCCN=C(N)N)C(N)=O)C(C)C` [SRSELIVHQR], the MIC with Candida albicans 38U is 26.1 µM (≈ 32 µg/mL); against Candida albicans 01U, at least 52.3 µM; in [23], at least 105 µM; in the assay on Trichophyton rubrum, 26.1 µM (≈ 32 µg/mL); in the assay on Candida parapsilosis, at least 209 µM; in [24], at least 209 µM. Further, the MIC in assay [25] was at least 209 µM.
Regarding `CSCC[C@H](NC(=O)[C@H](CO)NC(=O)[C@@H](N)CO)C(=O)N[C@@H](CCCCN)C(=O)N[C@@H](CC(C)C)C(=O)N[C@@H](CO)C(=O)N[C@@H](Cc1ccccc1)C(=O)N[C@@H](CCCN=C(N)N)C(=O)N[C@@H](C)C(=O)N[C@@H](CCCN=C(N)N)C(=O)N[C@@H](C)C(=O)N[C@@H](Cc1ccc(O)cc1)C(=O)N[C@@H](CO)C(=O)N[C@@H](Cc1ccccc1)C(=O)N[C@@H](CCCN=C(N)N)C(=O)NCC(=O)N1CCC[C@H]1C(=O)NCC(=O)N1CCC[C@H]1C(=O)N[C@@H](CCC(N)=O)C(=O)N[C@@H](CC(C)C)C(=O)O` [SSMKLSFRARAYSFRGPGPQL], the MIC against Aspergillus fumigatus was at least 80 µM; with Escherichia coli D22, at least 40 µM; in [26], 5 µM (≈ 11.8 µg/mL); in the assay with Micrococcus luteus A270, 2 µM (≈ 4.71 µg/mL).
